Laboratory results as given in patent US9920010B2, “CXCR7 receptor modulators” (IDORSIA PHARMACEUTICALS LTD, priority 2013, dated 2018).

molecular target: T1, CXCR7 (Homo sapiens, UniProt P25106); assay: PathHunter CHO-K1 CXCR7 b-arrestin recruitment assay (CXCR7 agonistic activity); assay type: cell-based; details: PathHunter CHO-K1 CXCR7 b-arrestin cell line
T1 construct: host or cells: CHO-K1 (PathHunter CHO-K1 CXCR7 b-arrestin cell line, stably transfected)
In short: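 Stable CHO-K1 line with C-terminally ProLink-tagged CXCR7 and β-arrestin 2–EA fusion; β-arrestin recruitment restores β-gal activity, read by chemiluminescence after 1 h RT detection. Cells seeded 24 h, starved in OPTIMEM 3–4 h, exposed to compounds 90 min at 37 °C in HBSS/HEPES/BSA. Geometric-mean EC50 from repeated measurements.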

T1 sequence (P25106 whole entry): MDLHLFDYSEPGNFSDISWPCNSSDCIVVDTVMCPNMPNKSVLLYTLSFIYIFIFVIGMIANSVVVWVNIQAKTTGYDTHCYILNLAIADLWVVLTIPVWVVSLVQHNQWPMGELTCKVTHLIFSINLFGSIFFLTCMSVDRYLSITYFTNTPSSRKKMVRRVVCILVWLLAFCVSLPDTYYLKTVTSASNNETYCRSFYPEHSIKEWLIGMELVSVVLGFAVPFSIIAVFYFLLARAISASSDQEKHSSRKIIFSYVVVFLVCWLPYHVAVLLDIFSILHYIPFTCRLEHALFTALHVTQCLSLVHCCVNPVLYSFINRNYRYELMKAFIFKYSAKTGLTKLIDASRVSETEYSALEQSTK
T1 sequence (P32121 whole entry partner): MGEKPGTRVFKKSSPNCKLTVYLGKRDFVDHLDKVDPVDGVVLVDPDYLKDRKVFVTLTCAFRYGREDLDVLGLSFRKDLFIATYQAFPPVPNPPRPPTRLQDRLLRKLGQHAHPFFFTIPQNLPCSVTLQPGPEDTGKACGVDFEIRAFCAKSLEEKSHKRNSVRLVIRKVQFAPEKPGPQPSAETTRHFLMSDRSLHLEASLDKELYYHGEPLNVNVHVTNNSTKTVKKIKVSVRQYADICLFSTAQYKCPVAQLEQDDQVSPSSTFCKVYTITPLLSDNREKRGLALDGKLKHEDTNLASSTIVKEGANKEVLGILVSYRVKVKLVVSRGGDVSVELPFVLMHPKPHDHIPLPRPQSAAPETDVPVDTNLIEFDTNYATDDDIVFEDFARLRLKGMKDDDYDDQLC

Row | SMILES | EC50 [nM]
1 | Cc1cccnc1CN(CCN(C)C)C(=O)CNc1cccc2c1CCN(CC1CC1)C2 [Example 256, 2-(2-Cyclopropylmethyl-1,2,3,4-tetrahydro-isoquinolin-5-ylamino)-N-(2-dimethylamino-ethyl)-N-(3-methyl-pyridin-2-ylmethyl)-acetamide] | 11
2 | CN(C)CCN(Cc1ccccn1)C(=O)CNc1cccc2c1CCN(CC1CC1)C2 [Example 257, 2-(2-Cyclopropylmethyl-1,2,3,4-tetrahydro-isoquinolin-5-ylamino)-N-(2-dimethylamino-ethyl)-N-pyridin-2-ylmethyl-acetamide] | 29
3 | Cc1ccc(CN(CCN(C)C)C(=O)CNc2cccc3c2CCN(CC2CC2)C3)nc1 [Example 258, 2-(2-Cyclopropylmethyl-1,2,3,4-tetrahydro-isoquinolin-5-ylamino)-N-(2-dimethylamino-ethyl)-N-(5-methyl-pyridin-2-ylmethyl)-acetamide] | 27
4 | Cc1cccc(CN(CCN(C)C)C(=O)CNc2cccc3c2CCN(CC2CC2)C3)n1 [Example 259, 2-(2-Cyclopropylmethyl-1,2,3,4-tetrahydro-isoquinolin-5-ylamino)-N-(2-dimethylamino-ethyl)-N-(6-methyl-pyridin-2-ylmethyl)-acetamide] | 5
5 | CN(C)CCN(Cc1ncccn1)C(=O)CNc1cccc2c1CCN(CC1CC1)C2 [Example 260, 2-(2-Cyclopropylmethyl-1,2,3,4-tetrahydro-isoquinolin-5-ylamino)-N-(2-dimethylamino-ethyl)-N-pyrimidin-2-ylmethyl-acetamide] | 125
6 | CN(C)CCN(Cc1ccc(Cl)cn1)C(=O)CNc1cccc2c1CCN(CC1CC1)C2 [Example 261, N-(5-Chloro-pyridin-2-ylmethyl)-2-(2-cyclopropylmethyl-1,2,3,4-tetrahydro-isoquinolin-5-ylamino)-N-(2-dimethylamino-ethyl)-acetamide] | 47
7 | CN(C)CCN(Cc1cncc(Cl)c1)C(=O)CNc1cccc2c1CCN(CC1CC1)C2 [Example 262, N-(5-Chloro-pyridin-3-ylmethyl)-2-(2-cyclopropylmethyl-1,2,3,4-tetrahydro-isoquinolin-5-ylamino)-N-(2-dimethylamino-ethyl)-acetamide] | 62
8 | CN(C)CCN(Cc1ccnn1C)C(=O)CNc1cccc2c1CCN(CC1CC1)C2 [Example 264, 2-(2-Cyclopropylmethyl-1,2,3,4-tetrahydro-isoquinolin-5-ylamino)-N-(2-dimethylamino-ethyl)-N-(2-methyl-2H-pyrazol-3-ylmethyl)-acetamide] | 374
9 | CN(C)CCN(Cc1nccs1)C(=O)CNc1cccc2c1CCN(CC1CC1)C2 [Example 265, 2-(2-Cyclopropylmethyl-1,2,3,4-tetrahydro-isoquinolin-5-ylamino)-N-(2-dimethylamino-ethyl)-N-thiazol-2-ylmethyl-acetamide] | 48
10 | Cc1csc(CN(CCN(C)C)C(=O)CNc2cccc3c2CCN(CC2CC2)C3)n1 [Example 266, 2-(2-Cyclopropylmethyl-1,2,3,4-tetrahydro-isoquinolin-5-ylamino)-N-(2-dimethylamino-ethyl)-N-(4-methyl-thiazol-2-ylmethyl)-acetamide] | 16
11 | CN(C)CCN(Cc1ccc(F)cn1)C(=O)CNc1cccc2c1CCN(CC1CC1)C2 [Example 267, 2-(2-Cyclopropylmethyl-1,2,3,4-tetrahydro-isoquinolin-5-ylamino)-N-(2-dimethylamino-ethyl)-N-(5-fluoro-pyridin-2-ylmethyl)-acetamide] | 33
12 | CN(C)CCN(Cc1ccncc1)C(=O)CNc1cccc2c1CCN(CC1CC1)C2 [Example 268, 2-(2-Cyclopropylmethyl-1,2,3,4-tetrahydro-isoquinolin-5-ylamino)-N-(2-dimethylamino-ethyl)-N-pyridin-4-ylmethyl-acetamide] | 350
13 | Cc1cc(CN(CCN(C)C)C(=O)CNc2cccc3c2CCN(CC2CC2)C3)no1 [Example 269, 2-(2-Cyclopropylmethyl-1,2,3,4-tetrahydro-isoquinolin-5-ylamino)-N-(2-dimethylamino-ethyl)-N-(5-methyl-isoxazol-3-ylmethyl)-acetamide] | 54
14 | CN(C)CCN(Cc1c(F)cccc1F)C(=O)CNc1cccc2c1CCN(CC1CC1)C2 [Example 270, 2-(2-Cyclopropylmethyl-1,2,3,4-tetrahydro-isoquinolin-5-ylamino)-N-(2,6-difluoro-benzyl)-N-(2-dimethylamino-ethyl)-acetamide] | 7
15 | CN(C)CCN(Cc1ncccc1F)C(=O)CNc1cccc2c1CCN(CC1CC1)C2 [Example 271, 2-(2-Cyclopropylmethyl-1,2,3,4-tetrahydro-isoquinolin-5-ylamino)-N-(2-dimethylamino-ethyl)-N-(3-fluoro-pyridin-2-ylmethyl)-acetamide] | 10
16 | CN(C)CCN(Cc1cnc(N(C)C)nc1)C(=O)CNc1cccc2c1CCN(CC1CC1)C2 [Example 272, 2-(2-Cyclopropylmethyl-1,2,3,4-tetrahydro-isoquinolin-5-ylamino)-N-(2-dimethylamino-ethyl)-N-(2-dimethylamino-pyrimidin-5-ylmethyl)-acetamide] | 230
17 | CC(C)(C)OC(=O)NCCN(Cc1ccccc1C(F)(F)F)C(=O)CNc1cccc2c1CCN(CC1CC1)C2 [Example 273, {2-[[2-(2-Cyclopropylmethyl-1,2,3,4-tetrahydro-isoquinolin-5-ylamino)-acetyl]-(2-trifluoromethyl-benzyl)-amino]-ethyl}-carbamic acid tert-butyl ester] | 144
18 | CC(C)(C)CCN(Cc1ccccc1C(F)(F)F)C(=O)CNc1cccc2c1CCN(CC1CC1)C2 [Example 274, 2-(2-Cyclopropylmethyl-1,2,3,4-tetrahydro-isoquinolin-5-ylamino)-N-(3,3-dimethyl-butyl)-N-(2-trifluoromethyl-benzyl)-acetamide] | 179
19 | CC(C)(C)CCN(Cc1ncccc1C(F)(F)F)C(=O)CNc1cccc2c1CCN(CC1CC1)C2 [Example 275, 2-(2-Cyclopropylmethyl-1,2,3,4-tetrahydro-isoquinolin-5-ylamino)-N-(3,3-dimethyl-butyl)-N-(3-trifluoromethyl-pyridin-2-ylmethyl)-acetamide] | 43
20 | Cc1cccnc1CN(CCC(C)(C)C)C(=O)CNc1cccc2c1CCN(CC1CC1)C2 [Example 276, 2-(2-Cyclopropylmethyl-1,2,3,4-tetrahydro-isoquinolin-5-ylamino)-N-(3,3-dimethyl-butyl)-N-(3-methyl-pyridin-2-ylmethyl)-acetamide] | 17
21 | O=C(CNc1cccc2c1CCN(CC1CC1)C2)N(CCN1CCC(F)(F)CC1)Cc1ccccc1C(F)(F)F [Example 277, 2-(2-Cyclopropylmethyl-1,2,3,4-tetrahydro-isoquinolin-5-ylamino)-N-[2-(4,4-difluoro-piperidin-1-yl)-ethyl]-N-(2-trifluoromethyl-benzyl)-acetamide] | 28
22 | CN(CCN(Cc1ccccc1C(F)(F)F)C(=O)CNc1cccc2c1CCN(CC1CC1)C2)CC(F)(F)F [Example 278, 2-(2-Cyclopropylmethyl-1,2,3,4-tetrahydro-isoquinolin-5-ylamino)-N-{2-[methyl-(2,2,2-trifluoro-ethyl)-amino]-ethyl}-N-(2-trifluoromethyl-benzyl)-acetamide] | 79
